{"source": "patent US5198445A", "about": "“Composition and use of substituted 3-thio-2-propynenitriles as industrial antimicrobials” (The Dow Chemical Company, priority 1992, dated 1993)", "key": {"Aspergillus niger (An)": {"tested_on": "Aspergillus niger (An)", "test": "MIC in malt yeast agar, Aspergillus niger", "type": "cell-based, Aspergillus niger ATCC 16404", "conditions": "read-out: Minimum Inhibitory Concentration, An", "procedure": "(§1) The minimum inhibitory concentration (MIC) for the compounds listed in Table I is determined for 9 bacteria, using nutrient agar, and 7 yeast and fungi, using malt yeast agar. A one percent solution of the test compound is prepared in a mixture of acetone and water. Nutrient agar is prepared at pH 6.8, representing a neutral medium, and at pH 8.2, representing an alkaline medium. The nutrient agars are prepared by adding 23 g of nutrient agar to one-liter of deionized water. In addition, the alkaline medium is prepared by adjusting a 0.04M solution of N-[tris-(hydroxymethyl)methyl]-glycine buffered deionized water with concentrated sodium hydroxide to a pH of […]. Malt yeast agar is prepared by adding 3 g yeast extract and 45 g malt agar per liter of deionized water. The specific agar is dispensed in 30 ml aliquots into 25×200 mm test tubes, capped and autoclaved for 15 minutes at 115° C. The test tubes containing the agar are cooled in a water bath until the temperature of the agar is 48° C. Then, an appropriate amount of the one percent solution of the test compound is added (except in the controls where no compound is added) to the respective test tubes so that the final concentrations are 500, 250, 100, 50, 25, 10, 5, 2.5, 1.0 and zero parts per million of the test compound in the agar, thus having a known concentration of test compound dispersed therein. The contents of the test tubes are then transferred to respective petri plates. After drying for 24 hours, the petri plates containing nutrient agar are inoculated with bacteria and those containing malt yeast agar are inoculated with yeast and fungi.\n(§2) The inoculation with the yeast and fungi is accomplished as follows. Cultures of yeast and fungi are incubated for seven days on malt yeast agar at 30° C. These cultures are used to prepare suspensions by the following procedure. A suspension of each organism is prepared by adding 10 ml of sterile saline and 10 microliters of octylphenoxy polyethoxy ethanol (TRITON® X-100, a trademark of Rohm & Haas Company) to the agar slant of yeast or fungi. The sterile saline/octylphenoxy polyethoxy ethanol solution is then agitated with a sterile swab to suspend the microorganism grown on the slant. Each resulting suspension is diluted into sterile saline (1 part suspension: 9 parts sterile saline). Aliquots of these dilutions are placed in individual wells of Steer's Replicator and petri plates inoculated as previously described. The petri plates are incubated at 30° C. and read after 48 hours for yeast and 72 hours for fungi.\n(§3) Table II lists the bacteria, yeast and fungi used in the MIC test described above along with their respective American Type Culture Collection (ATCC) identification numbers.\n(§4) The following MIC and MEC antimicrobial tests, whose results are shown in Tables XIII-XVII, are performed using the same methods as described hereinabove."}, "Escherichia coli (Ec)": {"tested_on": "Escherichia coli (Ec)", "test": "MIC in nutrient agar, Escherichia coli", "type": "cell-based, Escherichia coli ATCC 11229", "conditions": "Escherichia coli", "procedure": "as §1\n(§5) The inoculation with bacteria is accomplished by using the following procedure. Twenty-four hour-cultures of each of the bacteria are prepared by incubating the respective bacteria in tubes containing nutrient broth for 24 hours at 30° C. in a shaker. Dilutions of each of the 24 hour-cultures are made so that nine separate suspensions (one for each of the nine test bacteria) are made, each containing 10^8 colony forming units (CFU) per ml of suspension of a particular bacteria. Aliquots of 0.3 ml of each of the bacterial suspensions are used to fill the individual wells of Steer's Replicator. For each microbial suspension, 0.3 ml was used to fill three wells (i.e., three wells of 0.3 ml each) so that for the nine different bacteria, 27 wells are filled. The Steer's Replicator is then used to inoculate both the neutral and alkaline pH nutrient agar petri plates.\n(§6) The inoculated petri plates are incubated at 30° C. for 48 hours and then read to determine if the test compound which is incorporated into the agar prevented growth of the respective bacteria.\nas §3, §4"}, "Candida albicans (Ca)": {"tested_on": "Candida albicans (Ca)", "test": "MIC in malt yeast agar, Candida albicans", "type": "cell-based, Candida albicans ATCC 10231", "conditions": "read-out: Minimum Inhibitory Concentration, Ca", "procedure": "as §1, §2, §3, §4"}, "[1]": {"tested_on": "Enterobacter aerogenes (Ea)", "test": "MIC in nutrient agar, Enterobacter aerogenes", "type": "cell-based, Enterobacter aerogenes ATCC 13048", "conditions": "Klebsiella aerogenes", "procedure": "as §1, §5, §6, §3, §4"}, "[2]": {"tested_on": "Penicillium chrysogenum (Pc)", "test": "MIC in malt yeast agar, Penicillium chrysogenum", "type": "cell-based, Penicillium chrysogenum ATCC 9480", "conditions": "read-out: Minimum Inhibitory Concentration, Pc", "procedure": "as §1, §2, §3, §4"}, "Fusarium oxysporum (Fo)": {"tested_on": "Fusarium oxysporum (Fo)", "test": "MIC in malt yeast agar, Fusarium oxysporum", "type": "cell-based, Fusarium oxysporum ATCC 48112", "conditions": "read-out: Minimum Inhibitory Concentration, Fo", "procedure": "as §1, §2, §3, §4"}, "[3]": {"tested_on": "Aureobasidium pullulan (Ap)", "test": "MIC in malt yeast agar, Aureobasidium pullulan", "type": "cell-based, Aureobasidium pullulan ATCC 16622", "conditions": "read-out: Minimum Inhibitory Concentration, Ap", "procedure": "as §1, §2, §3, §4"}, "[4]": {"tested_on": "Klebsiella pneumoniae (Kp)", "test": "MIC in nutrient agar, Klebsiella pneumoniae", "type": "cell-based, Klebsiella pneumoniae ATCC 8308", "procedure": "as §1, §5, §6, §3, §4"}, "Proteus vulgaris (Pv)": {"tested_on": "Proteus vulgaris (Pv)", "test": "MIC in nutrient agar, Proteus vulgaris", "type": "cell-based, Proteus vulgaris ATCC 881", "procedure": "as §1, §5, §6, §3, §4"}, "Bacteria Species": {"tested_on": "Bacteria Species", "test": "MIC test in bacteria species, comparison over the organisms of Table XIV", "type": "cell-based, bacteria listed in Table II", "conditions": "pH 8.2", "procedure": "The minimum inhibitory concentration (MIC) for the compounds listed in Table I is determined for 9 bacteria, using nutrient agar, and 7 yeast and fungi, using malt yeast agar. A one percent solution of the test compound is prepared in a mixture of acetone and water. Nutrient agar is prepared at pH 6.8, representing a neutral medium, and at pH 8.2, representing an alkaline medium. The nutrient agars are prepared by adding 23 g of nutrient agar to one-liter of deionized water. In addition, the alkaline medium is prepared by adjusting a 0.04M solution of N-[tris-(hydroxymethyl)methyl]-glycine buffered deionized water with concentrated sodium hydroxide to a pH of […]. Malt yeast agar is prepared by adding 3 g yeast extract and 45 g malt agar per liter of deionized water. The specific agar is dispensed in 30 ml aliquots into 25×200 mm test tubes, capped and autoclaved for 15 minutes at 115° C. The test tubes containing the agar are cooled in a water bath until the temperature of the agar is 48° C. […]\nThe inoculated petri plates are incubated at 30° C. for 48 hours and then read to determine if the test compound which is incorporated into the agar prevented growth of the respective bacteria. […]"}, "[5]": {"tested_on": "Pseudomonas aeruginosa (PRD-10)", "test": "MIC in nutrient agar, Pseudomonas aeruginosa PRD-10", "type": "cell-based, Pseudomonas aeruginosa ATCC 15442", "conditions": "Pseudomonas aeruginosa", "procedure": "as §1, §5, §6, §3, §4"}, "[6]": {"tested_on": "Salmonella choleraesuis (Sc)", "test": "MIC in nutrient agar, Salmonella choleraesuis", "type": "cell-based, Salmonella choleraesuis ATCC 10708", "conditions": "Salmonella enterica, CHOLERAESUIS", "procedure": "as §1, §5, §6, §3, §4"}, "[7]": {"tested_on": "Staphylococcus aureus (Sa)", "test": "MIC in nutrient agar, Staphylococcus aureus", "type": "cell-based, Staphylococcus aureus ATCC 6538", "conditions": "Staphylococcus aureus", "procedure": "as §1, §5, §6, §3, §4"}, "Trichoderma viride (Tv)": {"tested_on": "Trichoderma viride (Tv)", "test": "MIC in malt yeast agar, Trichoderma viride", "type": "cell-based, Trichoderma viride ATCC 8678", "conditions": "read-out: Minimum Inhibitory Concentration, Tv", "procedure": "as §1, §2, §3, §4"}, "[8]": {"tested_on": "Pseudomonas aeruginosa (Pa)", "test": "MIC in nutrient agar, Pseudomonas aeruginosa", "type": "cell-based, Pseudomonas aeruginosa ATCC 10145", "procedure": "as §1, §5, §6, §3, §4"}, "[9]": {"tested_on": "Saccharomyces cerevisiae (Sc)", "test": "MIC in malt yeast agar, Saccharomyces cerevisiae", "type": "cell-based, Saccharomyces cerevisiae ATCC 4105", "conditions": "read-out: Minimum Inhibitory Concentration, Sc", "procedure": "as §1, §2, §3, §4"}, "[10]": {"test": "Degradation of Z isomer to 3-methylthio-2-propynenitrile", "type": "physicochemical", "description": "It has also been discovered that the Z isomer of an appropriately-substituted 2-chloro-3-thio-2-propenenitrile precursor may degrade in situ to a like-substituted 3-thio-2-propynenitrile."}, "Bacillus subtilis (Bs)": {"tested_on": "Bacillus subtilis (Bs)", "test": "MIC in nutrient agar, Bacillus subtilis", "type": "cell-based, Bacillus subtilis ATCC 8473", "conditions": "Bacillus subtilis", "procedure": "as §1, §5, §6, §3, §4"}}, "note": "Where two headings read alike, the source gives them in different places.", "data": [{"smiles": "CS/C=C(\\Cl)C#N", "note": "[Compound I, Z isomer of 2-chloro-3-(methylthio)-2-propenenitrile]", "values": [{"measurement": "MIC", "setting": "Aspergillus niger (An)", "result": 50, "unit": "µg/mL"}, {"measurement": "MIC", "setting": "Escherichia coli (Ec); pH 6.8, read-out: Minimum Inhibitory Concentration, Ec", "result": 50, "unit": "µg/mL"}, {"measurement": "MIC", "setting": "Escherichia coli (Ec); pH 8.2, read-out: Minimum Inhibitory Concentration, Ec", "result": 10, "unit": "µg/mL"}, {"measurement": "MIC", "setting": "Candida albicans (Ca)", "result": 100, "unit": "µg/mL"}, {"measurement": "MIC", "setting": "[1]; pH 6.8, read-out: Minimum Inhibitory Concentration, Ea", "result": 50, "unit": "µg/mL"}, {"measurement": "MIC", "setting": "[1]; pH 8.2, read-out: Minimum Inhibitory Concentration, Ea", "result": 10, "unit": "µg/mL"}, {"measurement": "MIC", "setting": "[2]", "result": 50, "unit": "µg/mL"}, {"measurement": "MIC", "setting": "Fusarium oxysporum (Fo)", "result": 100, "unit": "µg/mL"}, {"measurement": "MIC", "setting": "[3]", "result": 50, "unit": "µg/mL"}, {"measurement": "MIC", "setting": "[4]; pH 6.8, read-out: Minimum Inhibitory Concentration, Kp", "result": 50, "unit": "µg/mL"}, {"measurement": "MIC", "setting": "[4]; pH 8.2, read-out: Minimum Inhibitory Concentration, Kp", "result": 10, "unit": "µg/mL"}, {"measurement": "MIC", "setting": "Proteus vulgaris (Pv); pH 6.8, read-out: Minimum Inhibitory Concentration, Pv", "result": 50, "unit": "µg/mL"}, {"measurement": "MIC", "setting": "Proteus vulgaris (Pv); pH 8.2, read-out: Minimum Inhibitory Concentration, Pv", "result": 5, "unit": "µg/mL"}, {"measurement": "antimicrobial activity compared with 3-methylthio-2-propynenitrile (Compound A)", "setting": "Bacteria Species", "result": "essentially equivalent"}, {"measurement": "antimicrobial activity relative to the E isomer (Compound H)", "setting": "Bacteria Species", "result": "25-50 times greater"}, {"measurement": "MIC", "setting": "[5]; pH 6.8, read-out: Minimum Inhibitory Concentration, PRD", "result": 50, "unit": "µg/mL"}, {"measurement": "MIC", "setting": "[5]; pH 8.2, read-out: Minimum Inhibitory Concentration, PRD", "result": 10, "unit": "µg/mL"}, {"measurement": "MIC", "setting": "[6]; pH 6.8, read-out: Minimum Inhibitory Concentration, Sc", "result": 50, "unit": "µg/mL"}, {"measurement": "MIC", "setting": "[6]; pH 8.2, read-out: Minimum Inhibitory Concentration, Sc", "result": 10, "unit": "µg/mL"}, {"measurement": "MIC", "setting": "[7]; pH 6.8, read-out: Minimum Inhibitory Concentration, Sa", "result": 50, "unit": "µg/mL"}, {"measurement": "MIC", "setting": "[7]; pH 8.2, read-out: Minimum Inhibitory Concentration, Sa", "result": 10, "unit": "µg/mL"}, {"measurement": "MIC", "setting": "Trichoderma viride (Tv)", "result": 50, "unit": "µg/mL"}, {"measurement": "MIC", "setting": "[8]; pH 6.8, read-out: Minimum Inhibitory Concentration, Pa", "result": 50, "unit": "µg/mL"}, {"measurement": "MIC", "setting": "[8]; pH 8.2, read-out: Minimum Inhibitory Concentration, Pa", "result": 10, "unit": "µg/mL"}, {"measurement": "MIC", "setting": "[9]", "result": 100, "unit": "µg/mL"}, {"measurement": "half-life for the degradation of the Z isomer to 3-methylthio-2-propynenitrile", "setting": "[10]; pH 7", "result": "approximately two"}, {"measurement": "half-life for the degradation of the Z isomer to 3-methylthio-2-propynenitrile", "setting": "[10]; pH 9", "result": "approximately two"}, {"measurement": "MIC", "setting": "Bacillus subtilis (Bs); pH 6.8, read-out: Minimum Inhibitory Concentration, Bs", "result": 50, "unit": "µg/mL"}, {"measurement": "MIC", "setting": "Bacillus subtilis (Bs); pH 8.2, read-out: Minimum Inhibitory Concentration, Bs", "result": 10, "unit": "µg/mL"}]}]}
